The record followed here is PubChem BioAssay (NCI).

Test systems include HL-60(TB) leukemia; HOP-62 NSCLC; HS 578T breast; LOX IMVI melanoma; NCI/ADR-RES ovarian; PC-3 prostate; SF-295 CNS; SF-539 CNS.
Assay in all cases: inhibition of tumour cell growth, NCI panel, 48 h

Molecules are shown by their SMILES.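 Grown in 96-well plates, cells were treated for 48 hours with each compound at five concentrations. Insufficient inhibition: endpoint recorded as highest concentration tested. Abbreviation: GI50, concentration required for 50% inhibition of growth. TGI: total growth inhibition.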

As for `N#Cc1c(N)[nH]c2ccc(Sc3ccccc3)cc12`, the TGI with HL-60(TB) leukemia amounted to 1.92 µM; in the assay with HOP-62 NSCLC, 20.5 µM; in the assay with HS 578T breast, 25.8 µM; in the assay on LOX IMVI melanoma it was 7.56 µM; in the assay with NCI/ADR-RES ovarian, 10.2 µM; in the assay with PC-3 prostate, 15.8 µM. The TGI is 4.96 µM in the assay on SF-295 CNS and 0.694 µM in the assay with SF-539 CNS.

Turning to `O=C([CH-]C(=O)c1ccccc1)c1ccccc1.O=C([CH-]C(=O)c1ccccc1)c1ccccc1.[OH-].[OH-].[Ti+4]`, the GI50 in the assay with HL-60(TB) leukemia was more than 100 µM; with HOP-62 NSCLC, 27.1 µM; with SF-295 CNS, 30.4 µM; with SF-539 CNS it was 29.7 µM. Also, the TGI in the assay on HL-60(TB) leukemia, in the assay with HOP-62 NSCLC, in the assay with SF-295 CNS and in the assay with SF-539 CNS was more than 100 µM each time.

As to `CN1CCN(Cc2ccc(NC(=O)c3[nH]ncc3Nc3ncnc4sc5c(c34)CCCC5)cc2)CC1`, the GI50 in the assay with HL-60(TB) leukemia is 0.269 µM; in the assay with HOP-62 NSCLC, 0.286 µM; with HS 578T breast it was 0.151 µM; in the assay with LOX IMVI melanoma, 0.289 µM; in the assay on PC-3 prostate, 0.198 µM; in the assay with SF-295 CNS it was 0.373 µM. For the same compound, in the assay with SF-539 CNS, the GI50 is 0.457 µM. The TGI with HL-60(TB) leukemia was 0.804 µM; with HOP-62 NSCLC it was 1.45 µM; in the assay with HS 578T breast it was 1.74 µM; in the assay on LOX IMVI melanoma, 1.71 µM; in the assay on PC-3 prostate, 1.33 µM; with SF-295 CNS, 1.78 µM. The compound also gave a TGI with SF-539 CNS of 1.71 µM.

For the compound `Cc1nc2ccccc2c(/C=C/c2ccc(Br)cc2)c1C(=O)/C=C/c1ccccc1`, the GI50 is 2.17 µM with HL-60(TB) leukemia; 1.76 µM with HOP-62 NSCLC; 1.65 µM in the assay with LOX IMVI melanoma; 2.13 µM with NCI/ADR-RES ovarian; 1.76 µM with SF-539 CNS. Also, the TGI came out at 5.27 µM in the assay on HL-60(TB) leukemia; 3.4 µM with HOP-62 NSCLC; 3.01 µM in the assay with LOX IMVI melanoma; 5.31 µM in the assay on NCI/ADR-RES ovarian; 3.2 µM in the assay with SF-539 CNS.

As for `Cc1ccc(C2=Nc3ccccc3SC(c3cccc([N+](=O)[O-])c3)C2)cc1` (configuration not stated), the TGI in the assay with HOP-62 NSCLC is more than 100 µM; with HS 578T breast, 94.7 µM; in the assay on NCI/ADR-RES ovarian, more than 100 µM; in the assay on PC-3 prostate, more than 100 µM; with SF-295 CNS, more than 100 µM; with SF-539 CNS, 19 µM.

Take `COc1ccc2c(c1OC)C(=O)OC2C1c2c(c([N+](=O)[O-])c3c(c2OC)OCO3)CCN1C` (configuration not stated): the GI50 in the assay on HOP-62 NSCLC, in the assay with HS 578T breast, in the assay with LOX IMVI melanoma, in the assay on NCI/ADR-RES ovarian, in the assay with SF-295 CNS and in the assay with SF-539 CNS was more than 100 µM throughout. In addition, the TGI in the assay with HOP-62 NSCLC, in the assay on HS 578T breast, in the assay with LOX IMVI melanoma, in the assay on NCI/ADR-RES ovarian, in the assay with SF-295 CNS and in the assay with SF-539 CNS was more than 100 µM in each case.

Regarding `COC1O[C@@H]2C[C@H]3C(C)(C)CCC[C@]3(C)C3=CCCC1[C@@]32C` (some centres not stated), the GI50 in the assay on HOP-62 NSCLC is more than 100 µM; with HS 578T breast it was more than 100 µM; in the assay with LOX IMVI melanoma, more than 100 µM; in the assay with PC-3 prostate it was 0.515 µM; in the assay with SF-295 CNS, more than 100 µM; with SF-539 CNS, more than 100 µM. Further, the TGI in the assay with HOP-62 NSCLC, in the assay with HS 578T breast, in the assay on LOX IMVI melanoma, in the assay on PC-3 prostate, in the assay on SF-295 CNS and in the assay on SF-539 CNS was more than 100 µM each time.

With `COc1ccc(-c2cc(=O)c3c(OC)c(OC)c(OC)c(OC)c3o2)cc1`, the TGI with HL-60(TB) leukemia, with HOP-62 NSCLC, in the assay on HS 578T breast, in the assay with LOX IMVI melanoma, in the assay with NCI/ADR-RES ovarian and in the assay on SF-295 CNS was more than 100 µM each time. This compound also showed a TGI in the assay with SF-539 CNS of more than 100 µM.

As for `Cc1cccc(NC(=O)c2sc3nc4c(cc3c2N)CN(Cc2ccccc2)CC4)c1C`, the GI50 with HOP-62 NSCLC was 0.261 µM; with HS 578T breast it was 0.189 µM; in the assay with LOX IMVI melanoma, 0.254 µM; with NCI/ADR-RES ovarian, 0.133 µM; in the assay on PC-3 prostate it was 0.21 µM; in the assay on SF-295 CNS it was 0.161 µM. Further, the GI50 in the assay on SF-539 CNS is 0.165 µM. The TGI was more than 50 µM with HOP-62 NSCLC; more than 50 µM in the assay with HS 578T breast; more than 50 µM in the assay on LOX IMVI melanoma; more than 50 µM with NCI/ADR-RES ovarian; more than 50 µM in the assay on PC-3 prostate; 41.6 µM with SF-295 CNS. Also, the TGI in the assay with SF-539 CNS was found to be 28.2 µM.

Consider `O=c1[nH]cnc2c(C3NC(CO)C(O)C3O)c[nH]c12` (configuration not stated), for which the GI50 in the assay on HOP-62 NSCLC, with HS 578T breast, in the assay on LOX IMVI melanoma, in the assay on NCI/ADR-RES ovarian, in the assay on PC-3 prostate and in the assay with SF-295 CNS was more than 100 µM in each case. Further, the GI50 with SF-539 CNS was more than 100 µM. Besides, the TGI in the assay with HOP-62 NSCLC, in the assay with HS 578T breast, in the assay with LOX IMVI melanoma, with NCI/ADR-RES ovarian, with PC-3 prostate and in the assay with SF-295 CNS was more than 100 µM in each case. Also, the TGI with SF-539 CNS was more than 100 µM.

Consider `O=[N+]([O-])c1cc(S(=O)(=O)Oc2ccccc2)ccc1Cl`, for which the GI50 is 1.92 µM with HL-60(TB) leukemia; 6.06 µM in the assay with HOP-62 NSCLC; 2.7 µM in the assay on HS 578T breast; 1.78 µM in the assay with LOX IMVI melanoma; 8.27 µM in the assay with NCI/ADR-RES ovarian; 2.05 µM in the assay on PC-3 prostate. Also, the GI50 with SF-539 CNS is 3.52 µM. For the same compound, the TGI in the assay on HL-60(TB) leukemia turned out to be 6.84 µM; in the assay on HOP-62 NSCLC, 19.2 µM; in the assay with HS 578T breast it was 6.73 µM; with LOX IMVI melanoma, 3.69 µM; in the assay with NCI/ADR-RES ovarian, 45.3 µM; in the assay on PC-3 prostate, 4.45 µM. This compound also yielded a TGI in the assay with SF-539 CNS of 10.4 µM.

Take `COc1ccc2c(c1)OC1=C(C(=O)OC1)C2c1cc(OC)c2c(c1)OCO2` (configuration not stated): the GI50 in the assay with HL-60(TB) leukemia was 0.0342 µM; in the assay with HOP-62 NSCLC, 0.0411 µM; with HS 578T breast, 0.0348 µM; with LOX IMVI melanoma it was 0.0683 µM; in the assay with PC-3 prostate it was 0.0403 µM; in the assay on SF-295 CNS it was 0.0283 µM. The GI50 in the assay on SF-539 CNS was 0.0333 µM. In addition, the TGI in the assay with HOP-62 NSCLC, in the assay on HS 578T breast, in the assay with LOX IMVI melanoma, in the assay with PC-3 prostate, with SF-295 CNS and in the assay on SF-539 CNS was more than 100 µM each time.
